Tested on: normal human lung fibroblasts
Test: mRNA expression after LPA induction, Affymetrix Human Gene ST arrays, fibroblasts (Table 4A)
Format: cell-based
Details: LPA-induced fibroblasts; 1 μM BMS-986020; average of 3 experiments
Procedure: Changes in gene expression after 3 hours of LPA induction were profiled on Affymetrix Human Gene ST 2.0 microarrays; differentially expressed genes identified by ANOVA with FDR <0.05 and fold-change >1.2. Process networks associated with differentially expressed genes were defined using MetaCore. Changes in secreted protein expression after 24 hours of LPA induction were profiled on an aptamer-based proteomic platform (1129 proteins); differentially expressed proteins identified by t-test.
Total RNA was isolated from normal human lung fibroblasts, human bronchial epithelial cells, and human pulmonary alveolar epithelial cells treated for […] with LPA and/or LPAR1 inhibitor. Each treatment condition was assayed in triplicate. Samples were profiled on Affymetrix Human Gene ST Arrays 1.0 and/or 2.0 after preparation using the Ambion WT Expression Kit according to manufacturers' instructions.
Data normalization and all subsequent analyses were performed in Partek Genomics Suite (Partek, St. Louis, Mo.). Data were normalized using the Robust Multi-array Average (RMA) algorithm. Differentially expressed genes were identified by ANOVA with correction for multiple comparisons with p-value with FDR<0.05. A fold-change cut-off was not strictly applied, although the majority of the differentially expressed genes identified have fold-changes greater than 1.2. Genes were included if they were statistically significant for (1) LPA-induction and (2) response to treatment with an LPAR1 inhibitor.
In Tables 1-5 The differentially expressed secreted proteins set forth in Tables 1, 2, and 5 and the differentially expressed mRNAs set forth in Table 3 and 4 were identified by visual inspection of individual dot-plots.
For the gene and protein expression analysis primary fibroblasts (NHLF product #CC-2512 from Lonza group LTD) and primary epithelial cells (NHBE Product #CC-2540 from Lonza; HPAEpiC Product #3200 from Sciencell (USA, California)) were cultured as recommended by the manufacturer, except they were cultured on collagen coated plates. As part of the induction protocol cells were starved overnight in low (0.2 or 0.1% serum) or no serum (0%), prior to stimulation with LPA.

SMILES: Cc1noc(-c2ccc(-c3ccc(C4(C(=O)O)CC4)cc3)cc2)c1NC(=O)O[C@H](C)c1ccccc1 [BMS-986020]
- Effect of 1 μM BMS-986020 relative to induced cells (fold-change), BIRC3 mRNA: −3.33 fold-change
- Effect of 1 μM BMS-986020 relative to induced cells (fold-change), CHIC2 mRNA: −2.40 fold-change
- Effect of 1 μM BMS-986020 relative to induced cells (fold-change), CNST mRNA: −2.32 fold-change
- Effect of 1 μM BMS-986020 relative to induced cells (fold-change), CTGF mRNA: −4.62 fold-change
- Effect of 1 μM BMS-986020 relative to induced cells (fold-change), CYR61 mRNA: −7.53 fold-change
- Effect of 1 μM BMS-986020 relative to induced cells (fold-change), DKK1 mRNA: −6.16 fold-change
- Effect of 1 μM BMS-986020 relative to induced cells (fold-change), DUSP1 mRNA: −2.56 fold-change
- Effect of 1 μM BMS-986020 relative to induced cells (fold-change), EFNB2 mRNA: −2.63 fold-change
- Effect of 1 μM BMS-986020 relative to induced cells (fold-change), GPR37 mRNA: −3.13 fold-change
- Effect of 1 μM BMS-986020 relative to induced cells (fold-change), HAS2 mRNA: −2.89 fold-change
- Effect of 1 μM BMS-986020 relative to induced cells (fold-change), HBEGF mRNA: −5.41 fold-change
- Effect of 1 μM BMS-986020 relative to induced cells (fold-change), IER3 mRNA: −3.28 fold-change
- Effect of 1 μM BMS-986020 relative to induced cells (fold-change), IL6 mRNA: −4.08 fold-change
- Effect of 1 μM BMS-986020 relative to induced cells (fold-change), KPRP mRNA: −3.81 fold-change
- Effect of 1 μM BMS-986020 relative to induced cells (fold-change), KRTAP1-5 mRNA: −6.89 fold-change
- Effect of 1 μM BMS-986020 relative to induced cells (fold-change), KRTAP4-12 mRNA: −3.90 fold-change
- Effect of 1 μM BMS-986020 relative to induced cells (fold-change), LIF mRNA: −5.07 fold-change
- Effect of 1 μM BMS-986020 relative to induced cells (fold-change), MCP-1/CCL2 mRNA: −5.99 fold-change
- Effect of 1 μM BMS-986020 relative to induced cells (fold-change), MIR218-1: −2.82 fold-change
- Effect of 1 μM BMS-986020 relative to induced cells (fold-change), PAI-1 mRNA: −2.43 fold-change
- Effect of 1 μM BMS-986020 relative to induced cells (fold-change), PDCD1LG2 mRNA: −2.51 fold-change
- Effect of 1 μM BMS-986020 relative to induced cells (fold-change), PTX3 mRNA: −2.49 fold-change
- Effect of 1 μM BMS-986020 relative to induced cells (fold-change), SERPINB2 mRNA: −2.64 fold-change
- Effect of 1 μM BMS-986020 relative to induced cells (fold-change), TNFAIP3 mRNA: −3.68 fold-change
- Effect of 1 μM BMS-986020 relative to induced cells (fold-change), TXNIP mRNA: 4.41 fold-change
- Effect of 1 μM BMS-986020 relative to induced cells (fold-change), UGCG mRNA: −2.52 fold-change
- Effect of 1 μM BMS-986020 relative to induced cells (fold-change), VGLL3 mRNA: −2.97 fold-change

Source: patent US20170314074A1, “LPA-ASSOCIATED PROTEIN AND RNA EXPRESSION” (Intermune, Inc., priority 2014, published 2017)
